From US8853213B2, “Bicyclic compound for modulating G protein-coupled receptors” (Hanmi Pharm. Co., Ltd, priority 2011, dated 2014)

Biological target: T1, GPR119 (Homo sapiens, UniProt Q8TDV5)
T1 construct: host or cells: CHO-K1 (CRE-bla reporter, doxycycline-induced)
T1 sequence (Q8TDV5 1-335): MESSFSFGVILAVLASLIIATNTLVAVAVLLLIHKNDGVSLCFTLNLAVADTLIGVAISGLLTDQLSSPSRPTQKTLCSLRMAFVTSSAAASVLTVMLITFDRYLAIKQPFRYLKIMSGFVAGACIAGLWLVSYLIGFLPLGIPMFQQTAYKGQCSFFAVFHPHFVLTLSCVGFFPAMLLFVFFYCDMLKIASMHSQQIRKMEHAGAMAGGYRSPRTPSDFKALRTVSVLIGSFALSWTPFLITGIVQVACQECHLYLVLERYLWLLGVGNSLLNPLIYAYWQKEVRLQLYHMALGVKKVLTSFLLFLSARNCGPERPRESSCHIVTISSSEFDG
Assay: Controlling Effect of GPR119 in CRE-bla CHO-K1 Cells (EC50)
Format: cell-based
Conditions: GPR119 CRE-bla CHO-K1 cell line, 5 hr incubation with compound, β-lactamase LiveBLAzer-FRET B/G readout; read-out: controlling effect against GPR119 in CRE-bla CHO-K1 cell line (EC50)
Outline: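 CHO-K1 cells carrying GPR119 and a CRE-β-lactamase reporter, induced with doxycycline for 16-20 h at 37° C, then exposed to compounds in 10-fold dilutions for 5 h. CCF4-AM FRET substrate added for 2 h at room temperature; blue/green fluorescence (409 ex, […]) read and EC50 derived.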

SMILES	EC50
COC(=O)c1ccc(-c2csc3c(OC4CCN(c5nc(C(C)C)no5)CC4)ncnc23)cc1 [Example 102, 4-{4-[1-(3-isopropyl-[1,2,4]oxadiazol-5-yl)-piperidin-4-yloxy]-thieno[3,2-d]pyrimidin-7-yl}-benzoic acid methylester]	100 to 1000 nM
CC(=O)c1ccc(-c2csc3c(OC4CCN(c5nc(C(C)C)no5)CC4)ncnc23)cc1 [Example 103, 1-(4-{4-[1-(3-isopropyl-[1,2,4]oxadiazol-5-yl)-piperidin-4-yloxy]-thieno[3,2-d]pyrimidin-7-yl}-phenyl)-ethanone]	< 100 nM
CC(C)c1noc(N2CCC(Oc3ncnc4c(-c5ccc(S(=O)(=O)C6CC6)cc5)csc34)CC2)n1 [Example 104, 7-(4-cyclopropylsulfonyl-phenyl)-4-[1-(3-isopropyl-[1,2,4]oxadiazol-5-yl)-piperidin-4-yloxy]-thieno[3,2-d]pyrimidine]	< 100 nM
CC(C)c1noc(N2CCC(Oc3ncnc4c(-c5ccc(S(=O)(=O)C(C)C)cc5)csc34)CC2)n1 [Example 105, 4-[1-(3-isopropyl-[1,2,4]oxadiazol-5-yl)-piperidin-4-yloxy]-7-(4-isopropylsulfonyl-phenyl)-thieno[3,2-d]pyrimidine]	< 100 nM
CCCS(=O)(=O)c1ccc(-c2csc3c(OC4CCN(c5nc(C(C)C)no5)CC4)ncnc23)cc1 [Example 106, 4-[1-(3-isopropyl-[1,2,4]oxadiazol-5-yl)-piperidin-4-yloxy]-7-(4-propylsulfonyl-phenyl)-thieno[3,2-d]pyrimidine]	< 100 nM
CCCS(=O)(=O)c1ccc(-c2csc3c(OC4CCN(c5nc(C(C)C)no5)CC4)ncnc23)c(F)c1 [Example 107, 7-(2-fluoro-(4-propylsulfonyl)-phenyl)-4-[1-(3-isopropyl-[1,2,4]oxadiazol-5-yl)-piperidin-4-yloxy]-thieno[3,2-d]pyrimidine]	< 100 nM
CC(C)c1noc(N2CCC(Oc3ncnc4c(-c5ccc(S(=O)(=O)C6CCCC6)cc5)csc34)CC2)n1 [Example 108, 7-(4-cyclopentylsulfonyl-phenyl)-4-[1-(3-isopropyl-[1,2,4]oxadiazol-5-yl)-piperidin-4-yloxy]-thieno[3,2-d]pyrimidine]	< 100 nM
CC(C)(C)OC(=O)N1CCC(Nc2ncnc3c(-c4ccc(S(C)(=O)=O)cc4)csc23)CC1 [Example 109, tert-butyl 4-(7-(4-methanesulfonyl-phenyl)thieno[3,2-d]pyrimidin-4-ylamino)piperidin-1-carboxylate]	100 to 1000 nM
CS(=O)(=O)c1ccc(-c2csc3c(NC4CCNCC4)ncnc23)cc1 [Example 110, 7-(4-methanesulfonyl-phenyl)-N-(piperidin-4-yl)thieno[3,2-d]pyrimidin-4-amine]	> 1000 nM
CCc1cnc(N2CCC(Nc3ncnc4c(-c5ccc(S(C)(=O)=O)cc5)csc34)CC2)nc1 [Example 111, N-(1-(5-ethylpyrimidin-2-yl)piperidin-4-yl)-7-(4-methanesulfonyl-phenyl)thieno[3,2-d]pyrimidin-4-amine]	> 1000 nM
CN(c1ncnc2c(-c3ccc(S(C)(=O)=O)cc3)csc12)C1CCN(C(=O)OC(C)(C)C)CC1 [Example 112, tert-butyl 4-(methyl(7-(4-methanesulfonyl-phenyl)thieno[3,2-d]pyrimidin-4-yl)amino)piperidin-1-carboxylate]	< 100 nM
CCc1cnc(N2CCC(N(C)c3ncnc4c(-c5ccc(S(C)(=O)=O)cc5)csc34)CC2)nc1 [Example 114, [1-(5-ethylpyrimidin-2-yl)-piperidin-4-yl]-[7-(4-methanesulfonyl-phenyl)-thieno[3,2-d]pyrimidin-4-yl]-methylamine]	> 1000 nM
CCN(c1ncnc2c(-c3ccc(S(C)(=O)=O)cc3)csc12)C1CCN(c2ccc(C(F)(F)F)cn2)CC1 [Example 115, Ethyl-[7-(4-methanesulfonyl-phenyl)-thieno[3,2-d]pyrimidin-4-yl]-(5′-trifluoromethyl-3,4,5,6-tetrahydro-2H-[1,2′]bipyridinyl-4-yl)amine]	> 1000 nM
Cn1cc(-c2ccc(S(C)(=O)=O)cc2)c2ncnc(NC3CCN(C(=O)OC(C)(C)C)CC3)c21 [Example 116, tert-butyl 4-(5-methyl-7-(4-methanesulfonyl-phenyl)-5H-pyrrolo[3,2-d]pyrimidin-4-ylamino)piperidin-1-carboxylate]	> 1000 nM
CC(C)c1noc(C2CCN(c3ncnc4c(-c5ccc(S(C)(=O)=O)cc5)cn(C)c34)CC2)n1 [Example 117, 3-isopropyl-5-(1-(5-methyl-7-(4-methanesulfonyl-phenyl)-5H-pyrrolo[3,2-d]pyrimidin-4-yl)piperidin-4-yl)-1,2,4-oxadiazole]	100 to 1000 nM
CC(C)c1noc(C2CCN(c3ncnc4c(-c5ccc(-n6cnnn6)cc5)csc34)CC2)n1 [Example 118, 5-(1-(7-(4-(1H-tetrazol-1-yl)phenyl)thieno[3,2-d]pyrimidin-4-yl)piperidin-4-yl)-3-iso propyl-1,2,4-oxadiazole]	100 to 1000 nM
CC(C)(C)c1noc(N2CCC(Oc3ncnc4c(-c5ccc(-n6cncn6)cc5)csc34)CC2)n1 [Example 119, 5-(4-(7-(4-(1H-1,2,4-triazol-1-yl)phenyl)thieno[3,2-d]pyrimidin-4-yloxy)piperidin-1-yl)-3-tert-butyl-1,2,4-oxadiazole]	< 100 nM
Cn1cc(-c2ccc(-n3cnnn3)cc2)c2ncnc(OC3CCN(C(=O)OC(C)(C)C)CC3)c21 [Example 120, tert-butyl 4-(7-(4-(1H-tetrazol-1-yl)phenyl)-5-methyl-5H-pyrrolo[3,2-d]pyrimidin-4-yloxy)piperidin-1-carboxylate]	< 100 nM
CCc1cnc(N2CCC(Oc3ncnc4c(-c5ccc(N)cc5)cn(C)c34)CC2)nc1 [Example 121, 4-(4-(1-(5-ethylpyrimidin-2-yl)piperidin-4-yloxy)-5-methyl-5H-pyrrolo[3,2-d]pyrimidin-7-yl)benzenamine]	> 1000 nM
CCc1cnc(N2CCC(Oc3ncnc4c(-c5ccc(-n6cnnn6)cc5)cn(C)c34)CC2)nc1 [Example 122, 7-(4-(1H-tetrazol-1-yl)phenyl)-4-(1-(5-ethylpyrimidin-2-yl)piperidin-4-yloxy)-5-methyl-5H-pyrrolo[3,2-d]pyrimidine]	< 100 nM
Cn1cc(-c2ccc(-n3cnnn3)cc2)c2ncnc(OC3CCN(c4ncc(C(F)(F)F)cn4)CC3)c21 [Example 123, 7-(4-(1H-tetrazol-1-yl)phenyl)-5-methyl-4-(1-(5-(trifluoromethyl)pyrimidin-2-yl)piperidin-4-yloxy)-5H-pyrrolo[3,2-d]pyrimidine]	< 100 nM
Cn1cc(-c2ccc(-n3cnnn3)cc2)c2ncnc(O[C@H]3CCN(C(=O)OC(C)(C)C)C3)c21 [Example 125, (S)-tert-butyl 3-[5-methyl-7-(4-tetrazol-1-yl-phenyl)-5H-pyrrolo[3,2-d]pyrimidin-4-yloxy)pyrrolidin-1-carboxylate]	> 1000 nM
